Measured values from paper PMC9249579, “Strawberry fruit FanCXE1 carboxylesterase is involved in the catabolism of volatile esters during the ripening process” (Horticulture Research, 2022).

System: T1, FanCXE1
T1 construct: full-length, 981 bp ORF (326 residues from ORF length), 37 kDa; N-terminal GST fusion (pGEX-4T-1), tag kept, 64 kDa; E. coli, semipurified on GST-sepharose; Gly-82-Gly-83 oxyanion hole
Test: colorimetric naphthol release (DBLS reagent, […] nm)
Format: biochemical, Fragaria x ananassa
Settings: optimum pH (7-7.5) and temperature (25-30°C), 20 min; semipurified GST fusion

Km [µM]	Structure (SMILES)
678 ± 170	CC(=O)Oc1cccc2ccccc12 [α-Naphthyl acetate]
1580 ± 190	CCCC(=O)Oc1cccc2ccccc12 [α-Naphthyl butyrate]
572 ± 250	CCCCCC(=O)Oc1ccc2ccccc2c1 [β-Naphthyl hexanoate]
